In patent publication US20110318393A1, “Substituted Pyrazole Compounds” (MIIKANA THERAPEUTICS, INC., priority 2008, published 2011):

Legend:
Type in all cases: biochemical
recombinant Aurora A = target: T1, recombinant Aurora A (Homo sapiens, UniProt O14965); test: Aurora A (Aurora 2) inhibition assay, Z'-Lyte kinase assay; settings: ATP 10 μM, 1 h; less than or equal to 100 nM
T1 construct: purchased Upstate, Lake Placid, N.Y
T1 sequence (O14965 1-403): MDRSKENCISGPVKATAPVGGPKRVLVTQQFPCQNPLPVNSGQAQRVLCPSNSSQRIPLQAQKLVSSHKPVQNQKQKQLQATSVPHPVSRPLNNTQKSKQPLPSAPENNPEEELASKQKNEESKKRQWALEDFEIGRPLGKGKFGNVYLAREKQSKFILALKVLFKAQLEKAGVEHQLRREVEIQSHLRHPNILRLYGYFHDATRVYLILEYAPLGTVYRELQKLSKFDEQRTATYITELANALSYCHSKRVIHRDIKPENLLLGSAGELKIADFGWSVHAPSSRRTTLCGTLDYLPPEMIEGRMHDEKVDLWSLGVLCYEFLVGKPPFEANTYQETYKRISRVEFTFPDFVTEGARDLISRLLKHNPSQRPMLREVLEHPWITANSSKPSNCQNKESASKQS
Description: Compounds were tested for their potency against recombinant Aurora A (Upstate, Lake Placid, N.Y.) using the PanVera Z′-Lyte kinase assay kit-Ser/Thr 1 peptide (Invitrogen, Carlsbad, Calif.). Assays were carried out in kinase assay buffer (50 mM HEPES, pH 7.5, 10 mM MgCl2, 5 mM EGTA, 0.05% Brij-35, 2 mM DTT). Test compounds were initially dissolved in DMSO at 100× the highest tested concentration, then serially diluted to 4× test concentrations in kinase assay buffer. Next, Aurora A (final concentration 200-500 ng/mL), Z′-Lyte Ser/Thr 1 peptide (final concentration 2 μM) and ATP (final concentration 10 μM) were added according to the manufacturer's instructions. Assays were carried out in half-area 96-well white polystyrene assay plates (Corning, Corning, N.Y.) in a final volume of 20 μl. The reaction was allowed to proceed for 1 h at room temperature in the dark, at which point the development reagent and stop reagent were added according to the manufacturer's instructions. Coumarin (Ex. 400 nm, Em. 465 nm) and fluorescein (Ex. 400 nm, Em. 565 nm) fluorescence values were measured on a SpectraFluor Plus plate reader (Tecan, Durham, N.C.). The emission ratio (coumarin/fluorescein) was determined and used to calculate the percent phosphorylation for each well. Wells containing substrate but no kinase and wells containing a phosphopeptide control were used to set 0% and 100% phosphorylation values, respectively. Typically 20-40% of the substrate was phosphorylated in wells without inhibitor. Dose-response curves of relative Aurora A activity vs. inhibitor concentration were plotted with Grafit (Erithacus Software, Horley, Surrey, UK).

[1] = target: T2, N-terminal His-tagged human Src (Homo sapiens, UniProt P12931); test: Src kinase inhibition assay (33P-ATP filter assay); settings: 40 minutes, room temperature; less than or equal to 100 nM
T2 construct: His (N); purchased Upstate USA Inc, Charlottesville, Va
Description: Compounds were assayed for Src kinase inhibitory activity using N-terminal His-tagged human Src (Upstate USA Inc, 706 Forest Street, Charlottesville, Va.). Serial dilutions of compound were assayed in a final reaction volume of 25 μL by incubating a solution of the above Src kinase (5-10 mU), 8 mM MOPS (3-(N-morpholino)propanesulfonic acid) pH 7.0, 0.2 mM EDTA (ethylenediamine tetracetic acid), 250 μM amino acid sequence KVEKIGEGTYGVVYK (Upstate USA Inc, 706 Forest Street, Charlottesville, Va.), and 10 mM magnesium acetate and [γ-^33P-ATP] (specific activity of about 500 cpm/pmol, concentration as required). The reaction was initiated by the addition of the magnesium acetate and [γ-^33P-ATP] mixture. After incubation for 40 minutes at room temperature, the reaction was stopped by the addition of 5 μL of a 3% phosphoric acid solution. A 10 μL aliquote of the reaction was then spotted onto a P30 filtermat (PerkinElmer, Wellesley, Mass.) and washed three times for five minutes in 75 mM phosphoric acid and once in methanol prior to drying and scintillation counting. Inhibition of Src activity was determined by comparison to assays that contained no inhibitor.

[2] = target: T3, N-terminal GST-tagged recombinant human Flt3, residues 564-end (Homo sapiens, UniProt P36888); test: Flt3 kinase inhibition assay (33P-ATP filter assay); settings: 40 minutes, room temperature; less than or equal to 100 nM
T3 construct: recombinant human Flt3, residues 564-end; GST (N); purchased Upstate USA Inc, Charlottesville, Va
T3 sequence (P36888 564-993 limits assumed): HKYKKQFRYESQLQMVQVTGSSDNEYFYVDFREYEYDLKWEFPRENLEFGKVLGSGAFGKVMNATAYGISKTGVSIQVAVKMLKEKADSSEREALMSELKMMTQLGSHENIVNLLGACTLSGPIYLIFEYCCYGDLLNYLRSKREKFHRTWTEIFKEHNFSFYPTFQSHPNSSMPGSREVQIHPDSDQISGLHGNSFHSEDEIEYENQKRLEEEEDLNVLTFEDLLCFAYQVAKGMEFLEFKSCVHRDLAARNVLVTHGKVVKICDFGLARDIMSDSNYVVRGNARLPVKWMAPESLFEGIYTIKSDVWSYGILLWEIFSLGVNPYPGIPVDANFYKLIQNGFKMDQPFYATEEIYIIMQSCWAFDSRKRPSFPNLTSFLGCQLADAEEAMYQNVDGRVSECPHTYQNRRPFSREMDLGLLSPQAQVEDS
Description: (§1) Compounds were assayed for Flt3 kinase inhibitory activity using N-terminal GST-tagged recombinant human Flt3, residues 564-end (Upstate USA Inc, 706 Forest Street, Charlottesville, Va.). Serial dilutions of compound were assayed in a final reaction volume of 25 μL by incubating a solution of the above Flt3 kinase (5-10 mU), 8 mM MOPS (3-(N-morpholino)propanesulfonic acid) pH 7.0, 0.2 mM EDTA (ethylenediamine tetracetic acid), 50 μM amino acid sequence EAIYAAPFAKKK (Upstate USA Inc, 706 Forest Street, Charlottesville, Va.), and 10 mM magnesium acetate and [γ-^33P-ATP] (specific activity of about 500 cpm/pmol, concentration as required). The reaction was initiated by the addition of the magnesium acetate and [γ-^33P-ATP] mixture. After incubation for 40 minutes at room temperature, the reaction was stopped by the addition of 5 μL of a 3% phosphoric acid solution. A 10 μL aliquote of the reaction was then spotted onto a P30 filtermat (PerkinElmer, Wellesley, Mass.) and washed three times for five minutes in 75 mM phosphoric acid and once in methanol prior to drying and scintillation counting. Inhibition of Flt3 activity was determined by comparison to assays that contained no inhibitor.

[3] = target: T4, N-terminal His6-tagged recombinant human KDR, residues 790-end (Homo sapiens, UniProt P35968); test: KDR kinase inhibition assay (33P-ATP filter assay); settings: 40 minutes, room temperature; less than or equal to 100 nM
T4 construct: recombinant human KDR, residues 790-end; His6 (N); purchased Upstate USA Inc, Charlottesville, Va
Description: as §1, with “KDR” for “Flt3”, “His6-tagged” for “GST-tagged”, “KDR,” for “Flt3,”, “790-end” for “564-end”, “0.33 mg/mL myelin basic protein” for “50 μM amino acid sequence EAIYAAPFAKKK”

T4 sequence (P35968 790-1356 limits assumed): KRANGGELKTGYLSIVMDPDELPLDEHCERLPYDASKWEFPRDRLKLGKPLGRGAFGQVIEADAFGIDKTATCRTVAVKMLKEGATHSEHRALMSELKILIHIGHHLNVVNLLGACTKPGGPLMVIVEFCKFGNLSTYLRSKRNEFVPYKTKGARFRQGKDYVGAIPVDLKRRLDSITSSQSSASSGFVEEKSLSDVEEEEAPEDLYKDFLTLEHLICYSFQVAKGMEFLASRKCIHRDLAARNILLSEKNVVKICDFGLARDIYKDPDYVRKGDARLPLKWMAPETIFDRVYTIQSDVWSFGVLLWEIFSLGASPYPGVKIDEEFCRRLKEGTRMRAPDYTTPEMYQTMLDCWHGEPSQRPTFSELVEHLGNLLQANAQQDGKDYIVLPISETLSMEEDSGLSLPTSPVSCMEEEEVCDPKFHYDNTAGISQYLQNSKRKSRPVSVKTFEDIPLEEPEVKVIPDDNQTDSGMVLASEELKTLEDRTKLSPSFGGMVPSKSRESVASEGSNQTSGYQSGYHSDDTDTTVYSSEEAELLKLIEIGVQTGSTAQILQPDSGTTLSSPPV
T2 sequence (P12931 whole entry): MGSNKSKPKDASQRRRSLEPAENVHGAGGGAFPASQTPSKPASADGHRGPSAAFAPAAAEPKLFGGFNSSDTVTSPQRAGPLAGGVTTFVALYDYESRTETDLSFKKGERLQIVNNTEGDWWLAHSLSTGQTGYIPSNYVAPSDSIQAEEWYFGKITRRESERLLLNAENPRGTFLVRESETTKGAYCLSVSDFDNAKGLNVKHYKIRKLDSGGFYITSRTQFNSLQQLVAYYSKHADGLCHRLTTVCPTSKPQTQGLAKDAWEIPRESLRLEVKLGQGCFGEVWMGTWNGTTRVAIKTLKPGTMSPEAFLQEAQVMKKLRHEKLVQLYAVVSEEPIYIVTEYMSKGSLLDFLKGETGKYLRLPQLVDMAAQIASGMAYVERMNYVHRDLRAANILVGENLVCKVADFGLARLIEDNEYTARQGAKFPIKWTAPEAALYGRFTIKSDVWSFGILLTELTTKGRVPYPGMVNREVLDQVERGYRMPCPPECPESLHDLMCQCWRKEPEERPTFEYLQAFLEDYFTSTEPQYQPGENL

SMILES	IC50 (recombinant Aurora A)	IC50 [1]	IC50 [2]	IC50 [3]
COC1CCN(C2CN(c3cc(Nc4cc(C)[nH]n4)nc(/C=C/c4ccccc4)n3)C2)CC1 [Compound 1, (E)-6-(3-(4-methoxypiperidin-1-yl)azetidin-1-yl)-N-(5-methyl-1H-pyrazol-3-yl)-2-styrylpyrimidin-4-amine]	≤ 100 nM	≤ 100 nM	≤ 100 nM	≤ 100 nM
Cc1cc(Nc2cc(N3CCC(N4CCCC4)CC3)nc(/C=C/c3ccccc3)n2)n[nH]1 [Compound 2, (E)-N-(5-methyl-1H-pyrazol-3-yl)-6-(4-(pyrrolidin-1-yl)piperidin-1-yl)-2-styrylpyrimidin-4-amine]	≤ 100 nM	≤ 100 nM	≤ 100 nM	≤ 100 nM
Cc1cc(Nc2cc(N3CCN(C4CCN(C)CC4)CC3)nc(/C=C/c3ccccc3)n2)n[nH]1 [Compound 4, (E)-N-(5-methyl-1H-pyrazol-3-yl)-6-(4-(1-methylpiperidin-4-yl)piperazin-1-yl)-2-styrylpyrimidin-4-amine]	≤ 100 nM	≤ 100 nM	≤ 100 nM	≤ 100 nM
Cc1cc(Nc2cc(N3CCN(c4ccccc4)CC3)nc(/C=C/c3ccccc3)n2)n[nH]1 [Compound 8, (E)-N-(5-methyl-1H-pyrazol-3-yl)-6-(4-phenylpiperazin-1-yl)-2-styrylpyrimidin-4-amine]			≤ 100 nM	
Cc1cc(Nc2cc(N3CCN(C4CCCCC4)CC3)nc(/C=C/c3ccccc3)n2)n[nH]1 [Compound 9, (E)-6-(4-cyclohexylpiperazin-1-yl)-N-(5-methyl-1H-pyrazol-3-yl)-2-styrylpyrimidin-4-amine]	≤ 100 nM	≤ 100 nM	≤ 100 nM	≤ 100 nM
Cc1cc(Nc2cc(N3CCN(c4ccc(C#N)cc4)CC3)nc(/C=C/c3ccccc3)n2)n[nH]1 [Compound 10, (E)-4-(4-(6-(5-methyl-1H-pyrazol-3-ylamino)-2-styrylpyrimidin-4-yl)piperazin-1-yl)benzonitrile]			≤ 100 nM	

Continued, values first:

IC50 (recombinant Aurora A)	IC50 [1]	IC50 [2]	IC50 [3]	SMILES
		≤ 100 nM		Cc1cc(Nc2cc(N3CCC(O)(c4ccc(Cl)cc4)CC3)nc(/C=C/c3ccccc3)n2)n[nH]1 [Compound 11, (E)-4-(4-chlorophenyl)-1-(6-(5-methyl-1H-pyrazol-3-ylamino)-2-styrylpyrimidin-4-yl)piperidin-4-ol]
		≤ 100 nM	≤ 100 nM	Cc1cc(Nc2cc(N3CCN(c4ccc([N+](=O)[O-])cc4)CC3)nc(/C=C/c3ccccc3)n2)n[nH]1 [Compound 12, (E)-N-(5-methyl-1H-pyrazol-3-yl)-6-(4-(4-nitrophenyl)piperazin-1-yl)-2-styrylpyrimidin-4-amine]
≤ 100 nM	≤ 100 nM	≤ 100 nM	≤ 100 nM	Cc1cc(Nc2cc(N3CCN(CCN4CCOCC4)CC3)nc(/C=C/c3ccccc3)n2)n[nH]1 [Compound 13, (E)-N-(5-methyl-1H-pyrazol-3-yl)-6-(4-(2-morpholinoethyl)piperazin-1-yl)-2-styrylpyrimidin-4-amine]
≤ 100 nM		≤ 100 nM		Cc1cc(Nc2cc(N3CCN(c4ccccn4)CC3)nc(/C=C/c3ccccc3)n2)n[nH]1 [Compound 14, (E)-N-(5-methyl-1H-pyrazol-3-yl)-6-(4-(pyridin-2-yl)piperazin-1-yl)-2-styrylpyrimidin-4-amine]
≤ 100 nM	≤ 100 nM	≤ 100 nM	≤ 100 nM	Cc1cc(Nc2cc(N3CC(N4CCOCC4)C3)nc(/C=C/c3ccccc3)n2)n[nH]1 [Compound 15, (E)-N-(5-methyl-1H-pyrazol-3-yl)-6-(3-morpholinoazetidin-1-yl)-2-styrylpyrimidin-4-amine]
≤ 100 nM		≤ 100 nM		Cc1cc(Nc2cc(N3CCC(O)(Cc4ccccc4)CC3)nc(/C=C/c3ccccc3)n2)n[nH]1 [Compound 16]
≤ 100 nM	≤ 100 nM	≤ 100 nM	≤ 100 nM	Cc1cc(Nc2cc(N3CC(N4CCCCC4)C3)nc(/C=C/c3ccccc3)n2)n[nH]1 [Compound 18, (E)-N-(5-methyl-1H-pyrazol-3-yl)-6-(3-(piperidin-1-yl)azetidin-1-yl)-2-styrylpyrimidin-4-amine]
≤ 100 nM	≤ 100 nM	≤ 100 nM	≤ 100 nM	Cc1cc(Nc2cc(N3CC(N4CCC(O)CC4)C3)nc(/C=C/c3ccccc3)n2)n[nH]1 [Compound 21, (E)-1-(1-(6-(5-methyl-1H-pyrazol-3-ylamino)-2-styrylpyrimidin-4-yl)azetidin-3-yl)piperidin-4-ol]
≤ 100 nM	≤ 100 nM	≤ 100 nM	≤ 100 nM	Cc1cc(Nc2cc(N3CCC(N4CCCCC4)C3)nc(/C=C/c3ccccc3)n2)n[nH]1 (stereo not drawn) [Compound 23, (E)-N-(5-methyl-1H-pyrazol-3-yl)-6-(3-(piperidin-1-yl)pyrrolidin-1-yl)-2-styrylpyrimidin-4-amine]
